One assay has as its target T1, EP1 (Homo sapiens, UniProt P34995).
T1 construct: expressed in transfected cells; host or cells: CHO (EP1-CHO)
T1 sequence (P34995 1-402): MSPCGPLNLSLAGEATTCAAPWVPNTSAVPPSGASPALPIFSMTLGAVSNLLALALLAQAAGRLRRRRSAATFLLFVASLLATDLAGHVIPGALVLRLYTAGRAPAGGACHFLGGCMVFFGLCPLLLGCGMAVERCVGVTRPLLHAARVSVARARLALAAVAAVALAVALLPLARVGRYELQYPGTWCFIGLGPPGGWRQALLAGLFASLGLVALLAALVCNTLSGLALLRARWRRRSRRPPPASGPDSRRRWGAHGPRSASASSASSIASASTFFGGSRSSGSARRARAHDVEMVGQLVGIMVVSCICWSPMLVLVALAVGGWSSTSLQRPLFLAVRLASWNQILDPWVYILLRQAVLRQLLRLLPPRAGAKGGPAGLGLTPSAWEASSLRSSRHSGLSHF
As to the kind of experiment: agonist activity on human EP1 receptor (intracellular calcium concentration, EP1-CHO cells). The format is cell-based. As for the experimental part:
Using CHO cells (EP1-CHO, EP2-CHO, EP3-Chem1, EP4-CHO and IP-CHO) on which various human prostanoid receptors were forcibly expressed, the agonist activity of the test compound on the various prostanoid receptors was examined using the intracellular calcium concentration for EP1 and EP3, and the intracellular cyclic AMP (hereinafter, abbreviated as cAMP) production amount for EP2, EP4 and IP as indices.
The test compound and control substances (PGE2 and iloprost) were dissolved in dimethyl sulfoxide (DMSO) to prepare a 10 mmol/L solution. The prepared 10 mmol/L solution was thawed at the time of use, serially diluted using DMSO, and diluted with a buffer solution 1 for measurement (Hank's balanced salt solution (Thermofischer scientific) containing 1 w/v% human serum albumin (Sigma), 2 µmol/L indomethacin (Sigma), 2.5 mmol/L probenecid, and 10 mmol/L HEPES-NaOH (pH7.4)) or a buffer solution 2 for measurement (D-PBS (Nacalai Tesque) containing 0.1 w/v% human serum albumin, 2 µmol/L diclofenac (Sigma), and 1 mmol/L 3-isobutyl-1-methylxanthine (Sigma)) to perform experiments.
The intracellular calcium concentration was measured using Calcium 6 Assay Kit (Molecular Devices). On the day before the measurement, EP1-CHO and EP3-Chem 1 were obtained by thawing the frozen cells, suspended using Ham's F-12 medium (Thermofischer scientific) containing inactivated (56°C, 30 min) 9.8 vol% FBS (Thermofischer scientific) and penicillin-streptomycin (Nacalai Tesque), seeded into a 96 well UV plate to 1.0×10^5 cells per well, and static cultured at 37°C in the presence of 5%CO2. On the day of the measurement, the medium was removed, followed by addition of 120 µL of the Calcium indication solution dissolved in the buffer solution 1 for measurement and incubation at room temperature under light-shielding for about 1 hour. After 1 hour incubation, the 96 well UV plates were set in a fluorescence spectrophotometer (FDSS-7000, Hamamatsu Photonics) to measure the intracellular calcium concentration. Thirty microliters of the buffer solution 1 for measurement containing various concentrations of agonists were added, and the mixture was reacted. The intracellular calcium concentration was measured by irradiating the cells with 480 nm excitation light and measuring the fluorescence intensity at 540 nm.
Background: Calcium assays in cells follow changes in intracellular calcium, usually with a dye or a luminescent sensor.

Assay [1] has as its system rat renal ischemia reperfusion (IR) model. The assay can be described thus: in vivo drug efficacy in rat renal ischemia reperfusion (IR) model. On the set-up: species or system Crl : CD (SD) rats. As for the experimental part: The effect of the present compound on renal IR damage was evaluated using male rats.
Male Crl : CD (SD) rats aged 3 or 4 weeks were purchased from Charles River Laboratories Japan, and subjected to experiments. Animals were fed ad libitum with FR-2 (Funabashi Farm) at the time of arrival and with solid feed CE-2 (CLEA Japan) for one week before single kidney removal, and watered ad libitum.
After acclimation breeding, the right kidney was removed about 7 days before renal IR treatment. Specifically, the rats were allowed to inhale isoflurane (Mylan) for anesthesia, and administered buprenorphine (Otsuka Pharmaceutical) as an analgesic at 0.01 mg/kg. The right back was incised, the right kidney was removed, and then the incision was sutured.
Renal IR treatment was performed about 7 days after single kidney removal. Specifically, rats were anesthetized by intraperitoneal administration of sodium pentobarbital (Tokyo Chemical Industry) at a dose of 50 mg/kg, and administered buprenorphine as an analgesic at 0.01 mg/kg. The left abdomen was incised, and the renal artery and vein was sandwiched with a clamp (Natsume Seisakusho) to cause ischemia for 35 minutes. During ischemia, the rats were allowed to lie on a heat-retaining plate set at 38°C, and after 35 minutes, the clamp was removed for reperfusion. After visually confirming that blood flow to the kidney was recovered, the incision was sutured. The sham group was a sham-operated group in which neither ischemia nor reperfusion treatment was performed.
Animals were distributed on the day before renal IR treatment such that differences in the mean of the body weight in each group were not biased, and assigned animal numbers.
The compound of Example 7 (test substance) and physiological saline (Otsuka Pharmaceutical) as a vehicle were subcutaneously administered at 5 mL/kg using an injection needle 5 minutes before renal IR treatment. Saline was administered to the sham group in the same test. The administration dose is described in Table 16.
Specifically, the rats were allowed to inhale isoflurane for anesthesia on the day before renal IR treatment, and administered buprenorphine as an analgesic at 0.01 mg/kg. […] The incision was bonded with Dermabond Advanced (Johnson & Johnson). A pump containing a vehicle was also embedded in the sham group in the same test. The administration dose is described in Table 16.
After renal IR treatment, blood was collected through the tail vein on Day1, Day2, and Day3 to obtain serum. In addition, after renal IR treatment, rats were euthanized by exsanguination through the abdominal aorta under isoflurane anesthesia on Day3.
The respective concentrations of serum creatinine (sCre) and blood urea nitrogen (BUN) were measured using an automatic analyzer 7180 (Hitachi High-Tech).

The mark [2] stands for this setting: IR 1.0 µg/kg/min, subcutaneous osmotic pump, day 1.
The mark [3] stands for this setting: IR 1.0 µg/kg/min, subcutaneous osmotic pump, day 2.
Where [4] appears, read: IR 3.0 µg/kg/min, subcutaneous osmotic pump, day 1.
[5] abbreviates: IR 3.0 µg/kg/min, subcutaneous osmotic pump, day 2.
Setting [6] is: IR 0.1 mg/kg subcutaneous 5 minutes before renal IR treatment, day 1.
Setting [7] is: IR 0.1 mg/kg subcutaneous 5 minutes before renal IR treatment, day 2.
Setting [8] is: IR 0.1 mg/kg subcutaneous 5 minutes before renal IR treatment, day 3.
Setting [9] is: IR 1.0 mg/kg subcutaneous 5 minutes before renal IR treatment, day 1.
Where [10] appears, read: IR 1.0 mg/kg subcutaneous 5 minutes before renal IR treatment, day 2.
The mark [11] stands for this setting: IR 1.0 mg/kg subcutaneous 5 minutes before renal IR treatment, day 3.

As a reminder, the EC50 is the concentration at which the effect is half-maximal. With `C[C@@H](c1ccc(F)cc1F)[C@H](O)/C=C/[C@@H]1[C@H]2CCc3ccc(C(=O)O)c(F)c3O[C@H]2C[C@H]1O` [Example 1, (1R,2R,3aS,10aR)-1-[(1E,3R,4S)-4-(2,4-difluorophenyl)-3-hydroxy-1-penten-1-yl]-5-fluoro-2-hydroxy-2,3,3a,9,10,10a-hexahydro-1H-benzo[b]cyclopenta[f]oxepine-6-carboxylic acid], on EP1, the EC50 is 3.5 µM.

On to `CC(c1ccccc1F)C(O)/C=C/[C@@H]1[C@H]2CCc3ccc(C(=O)O)c(F)c3O[C@H]2C[C@H]1O` (stereo partly drawn) [Example 3, (1R,2R,3aS,10aR)-5-fluoro-1-[(1E)-4-(2-fluorophenyl)-3-hydroxy-1-penten-1-yl]-2-hydroxy-2,3,3a,9,10,10a-hexahydro-1H-benzo[b]cyclopenta[f]oxepine-6-carboxylic acid], for which the EC50 on EP1 came to 7.3 µM.

As for `Cc1ccccc1C1(C(O)/C=C/[C@@H]2[C@H]3CCc4ccc(C(=O)O)c(F)c4O[C@H]3C[C@H]2O)CC1` (stereo partly drawn) [Example 5-2, (1R,2R,3aS,10aR)-5-fluoro-2-hydroxy-1-{(1E,3ξ)-3-hydroxy-3-[1-(2-methylphenyl)cyclopropyl]-1-propen-1-yl}-2,3,3a,9,10,10a-hexahydro-1H-benzo[b]cyclopenta[f]oxepine-6-carboxylic acid], the “blood urea nitrogen (BUN) concentration mean” value in assay [1] (setting [2]) is 75.5; in assay [1] (setting [3]), 65.3; in assay [1] (setting [4]), 63.4; in assay [1] (setting [5]), 54.9. In addition, the “serum creatinine (sCre) concentration mean” value in assay [1] (setting [2]) amounted to 0.91; in assay [1] (setting [3]) it was 0.62; in assay [1] (setting [4]), 0.79; in assay [1] (setting [5]), 0.50.

Consider `O=C(O)c1ccc2c(c1)O[C@H]1C[C@@H](O)[C@H](/C=C/[C@@H](O)C3(c4ccccc4)CC3)[C@H]1CC2` [Example 7, (1R,2R,3aS,10aR)-2-hydroxy-1-[(1E,3R)-3-hydroxy-3-(1-phenylcyclopropyl)-1-propen-1-yl]-2,3,3a,9,10,10a-hexahydro-1H-benzo[b]cyclopenta[f]oxepine-6-carboxylic acid], for which the “blood urea nitrogen (BUN) concentration mean” value in assay [1] (setting [6]) is reported as 74.6; in assay [1] (setting [7]), 58.7; in assay [1] (setting [8]) it was 46.3; in assay [1] (setting [9]), 73.6; in assay [1] (setting [10]), 53.1; in assay [1] (setting [11]), 39.7. The “serum creatinine (sCre) concentration mean” value stood at 1.08 in assay [1] (setting [6]); 0.72 in assay [1] (setting [7]); 0.52 in assay [1] (setting [8]); 0.99 in assay [1] (setting [9]); 0.62 in assay [1] (setting [10]); 0.44 in assay [1] (setting [11]).

In the case of `O=C(O)c1ccc2c(c1)O[C@H]1C[C@@H](O)[C@H](/C=C/C(O)C3(c4ccc(F)cc4)CCC3)[C@H]1CC2` (stereo partly drawn) [Example 7-13, (1R,2R,3aS,10aR)-1-{(1E,3ξ)-3-[1-(4-fluorophenyl)cyclobutyl]-3-hydroxy-1-propen-1-yl}-2-hydroxy-2,3,3a,9,10,10a-hexahydro-1H-benzo[b]cyclopenta[f]oxepine-6-carboxylic acid], the EC50 at EP1 came out at 6.3 µM.

As to `O=C(O)c1ccc2c(c1Cl)O[C@H]1C[C@@H](O)[C@H](/C=C/C(O)C(F)(F)c3c(F)cccc3F)[C@H]1CC2` (stereo partly drawn) [Example 8, (1R,2R,3aS,10aR)-5-chloro-1-[(1E,3ξ)-4-(2,6-difluorophenyl)-4,4-difluoro-3-hydroxy-1-buten-1-yl]-2-hydroxy-2,3,3a,9,10,10a-hexahydro-1H-benzo[b]cyclopenta[f]oxepine-6-carboxylic acid], the EC50 at EP1 turned out to be 2.7 µM.

Regarding `Cc1c(C(=O)O)ccc2c1O[C@H]1C[C@@H](O)[C@H](/C=C/CC(C)(O)CCC(C)C)[C@H]1CC2` (stereo partly drawn) [Example 13, (1R,2R,3aS,10aR)-2-hydroxy-1-[(1E,4ξ)-4-hydroxy-4,7-dimethyl-1-octen-1-yl]-5-methyl-2,3,3a,9,10,10a-hexahydro-1H-benzo[b]cyclopenta[f]oxepine-6-carboxylic acid], on EP1, the EC50 is more than 10 µM.

With `O=C(O)c1ccc2c(c1)O[C@H]1CC[C@H](/C=C/C(O)C3(c4ccccc4F)CCC3)[C@H]1CC2` (stereo partly drawn) [Example 26-9, (1R,3aS,10aR)-1-{(1E,3ξ)-3-[1-(2-fluorophenyl)cyclobutyl]-3-hydroxy-1-propen-1-yl}-2,3,3a,9,10,10a-hexahydro-1H-benzo[b]cyclopenta[f]oxepine-6-carboxylic acid], the EC50 on EP1 is more than 10 µM.

On to `O=C(O)c1ccc2c(c1Cl)O[C@H]1CC[C@H](/C=C/C(O)C3(c4ccccc4F)CCC3)[C@H]1CC2` (stereo partly drawn) [Example 26-17, (1R,3aS,10aR)-5-chloro-1-{(1E,3ξ)-3-[1-(2-fluorophenyl)cyclobutyl]-3-hydroxy-1-propen-1-yl}-2,3,3a,9,10,10a-hexahydro-1H-benzo[b]cyclopenta[f]oxepine-6-carboxylic acid], for which, at EP1, the EC50 was more than 10 µM.

With `C=C(CCOC)C(O)/C=C/[C@H]1CC[C@@H]2Oc3c(ccc(C(=O)O)c3Cl)CC[C@@H]21` (stereo partly drawn) [Example 26-19, (1R,3aS,10aR)-5-chloro-1-[(1E,3ξ)-3-hydroxy-6-methoxy-4-methylene-1-hexen-1-yl]-2,3,3a,9,10,10a-hexahydro-1H-benzo[b]cyclopenta[f]oxepine-6-carboxylic acid], the EC50 on EP1 was more than 10 µM.

Regarding `CCCC[C@H](CC)C(O)/C=C/[C@H]1CC[C@@H]2Oc3c(ccc(C(=O)O)c3Cl)CC[C@@H]21` (stereo partly drawn) [Example 26-20, (1R,3aS,10aR)-5-chloro-1-[(1E,3ξ,4S)-4-ethyl-3-hydroxy-1-octen-1-yl]-2,3,3a,9,10,10a-hexahydro-1H-benzo[b]cyclopenta[f]oxepine-6-carboxylic acid], the EC50 at EP1 is more than 10 µM.

(Values after patent EP4682141A1, “TRICYCLIC COMPOUND” (ONO Pharmaceutical Co., Ltd., priority 2023, dated 2024).)
